According to publication PMC8805316, “NanoBRET in C. elegans illuminates functional receptor interactions in real time” (BMC Molecular and Cell Biology, 2022):
Entries after “also recorded” stand apart in the source; their conditions may differ. Non-standard residues stand in square brackets, D forms with d. Residues, ends and D or L forms follow the SMILES beside them. No end group written: not given here. *: point of attachment. 5TAMRA = CN(C)c1ccc2c(c1)Oc1cc(N(C)C)ccc1C21OC(=O)c2cc(C(=O)*)ccc21; Dap(TAM) = not defined here; Dap = NC[C@H](N)C(=O)O

T1: Nluc::LAT-1 (lat-1p::lat-1(1-249)::Nluc::lat-1(250-650)::GFP::lat-1(651-1015)), expressed in C. elegans (C. elegans, UniProt G5EDW2 28-1014)
T1 sequence (looked up): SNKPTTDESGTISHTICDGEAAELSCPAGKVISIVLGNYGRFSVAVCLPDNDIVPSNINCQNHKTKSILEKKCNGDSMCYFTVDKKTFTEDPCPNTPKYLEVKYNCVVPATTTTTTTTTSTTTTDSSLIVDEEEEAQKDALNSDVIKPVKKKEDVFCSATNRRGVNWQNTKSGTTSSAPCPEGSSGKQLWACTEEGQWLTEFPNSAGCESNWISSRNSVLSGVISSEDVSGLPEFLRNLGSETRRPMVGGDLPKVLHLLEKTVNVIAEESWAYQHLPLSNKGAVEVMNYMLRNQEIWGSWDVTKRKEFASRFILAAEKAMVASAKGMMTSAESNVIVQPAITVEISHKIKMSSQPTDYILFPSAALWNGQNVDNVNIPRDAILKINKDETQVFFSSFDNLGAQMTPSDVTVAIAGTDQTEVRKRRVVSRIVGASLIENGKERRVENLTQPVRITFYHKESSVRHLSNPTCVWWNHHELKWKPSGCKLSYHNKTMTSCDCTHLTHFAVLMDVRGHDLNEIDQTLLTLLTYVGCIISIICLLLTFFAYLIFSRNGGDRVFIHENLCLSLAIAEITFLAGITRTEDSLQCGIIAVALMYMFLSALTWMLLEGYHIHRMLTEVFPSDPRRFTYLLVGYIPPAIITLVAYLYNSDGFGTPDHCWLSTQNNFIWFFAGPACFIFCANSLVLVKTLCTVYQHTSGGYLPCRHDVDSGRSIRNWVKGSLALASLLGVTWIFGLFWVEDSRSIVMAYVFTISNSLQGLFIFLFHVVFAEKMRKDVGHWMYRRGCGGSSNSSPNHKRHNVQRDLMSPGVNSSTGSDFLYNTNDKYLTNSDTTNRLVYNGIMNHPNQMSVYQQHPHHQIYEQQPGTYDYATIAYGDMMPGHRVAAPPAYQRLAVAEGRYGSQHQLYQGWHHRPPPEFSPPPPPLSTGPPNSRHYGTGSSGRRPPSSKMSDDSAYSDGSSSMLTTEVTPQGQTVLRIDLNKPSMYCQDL


What was measured:
[1] = biological target: T2, Nluc::LAT-1 (Caenorhabditis elegans, UniProt G5EDW2); test: biochemical; assay type: binding, C. elegans
T2 construct: Lat-1p::lat-1(1–249)::Nluc::lat-1(250–650)::GFP::lat-1(651–1015); GFP, inserted between residues 650 and 651 (so in the source); expressed in transfected cells; host or cells: transgenic C. elegans (extrachromosomal array, lat-1 knockout background), incised young adult worms
Description: All measurements were conducted using synchronized young adult worms (1 day post L4). Individuals were washed twice with HBSS (Hanks’ balanced salt solution with 25 mM HEPES, pH 7.4, 37 °C) and the number of worms/ μl was calculated.
(§1) For luminescence measurements of intact worms, animals (1; 10; 50; 100 or 500) were directly transferred into the wells of a white flat-bottom 384-well plate in 50 μl HBSS buffer. Worms to be cut were pre-washed with M9 + 0.1% Tween to avoid sticking of worms to the dish and subsequently transferred in 2 ml of HBSS. Incisions were made in the middle of the body with a scalpel blade and worms were immediately afterwards transferred with a glass pipette into HBSS buffer on ice. For mechanically cracking, a worm suspension was homogenized in tubes with 150 μl HBSS and six glass beads (Ø = 3 mm) using with a Precellys homogenizer (Bertin instruments, France) for 40 s at 5000 rpm. Samples were placed on ice until further usage.
For BRET binding assays in vivo, the nanoluciferase (Nluc) was applied as energy donor and either peptides labeled with the TAM fluorophore or the mNeonGreen fluorescent protein fused to a receptor served as acceptor.
30 Nluc-expressing worms with incisions in 50 μl BRET buffer were incubated with dissolving buffer or peptide solutions of final concentrations ranging from 0.05–10 μM in a 384-well plate. During a 25 min incubation with gentle shaking, 10 μl Nano-Glo Live Cell Reagent (N2011, Promega, USA) of a 5x stock were added according to manufacturer’s instructions after 15 min to each well. Competition-binding assays were performed similarly, but additionally, unlabeled peptide (final concentrations 0.016–10 μM) was pipetted into each well and 5 μl of a 10x stock Nano-Glo Live cell reagent was applied after 15 min.
Luminescence (L) and fluorescence (F) were detected with a microplate plate reader (Tecan Spark) using the following filter set: donor = 430–470 nm, acceptor = 550–700 nm with 1000 ms integration time. BRET was calculated by dividing F values by L values. For each experiment, the background signal of donor-only cells was subtracted, such that the BRET ratio at 0 μM ligand equals 0.00. In Fig. 3B (left) and Fig. 3D, the mean of n = 4 (NPR-11) or n = 3 (LAT-1) independent, individually background-corrected single experiments is presented.

[2] = test system: LAT-1; test: cAMP accumulation assay (AlphaScreen), COS-7 cells with LAT-1 plasmid (Fig. S3C); assay type: cell-based, C. elegans; settings: for cAMP conc.: LAT-1 plasmid, 100 μM peptide, mean ± SEM of 5 independent assays, DMSO control 4.66 ± 1.72
Description: (§2) All in vitro experiments were carried out using either HEK293 cells (Homo sapiens, embryonic kidney, DSMZ (German Collection of Microorganisms and Cell Cultures) ACC 305) or COS-7 cells (African green monkey, cercopithecus aethiops, kidney, DSMZ (German Collection of Microorganisms and Cell Cultures) ACC 60). HEK293 cells were kept in Dulbecco’s Modified Eagle’s Medium (DMEM) with Ham’s F-12 (v/v) and 15% (v/v) heat-inactivated fetal calf serum (FCS), while COS-7 cells were cultured in DMEM with 10% (v/v) FCS and 1% (v/v) Penicillin-Streptomycin. All cells were kept at 37 °C under a humidified atmosphere (5% CO2).
(§3) Gs-coupling of LAT-1, quantified by detection of intracellular cAMP accumulation, was measured using an AlphaScreen cAMP detection kit (PerkinElmer, USA). Briefly, COS-7 cells (15,000 cells/ well) were transfected in 96-well plates with either 200 ng of LAT-1-encoding plasmid or empty vector using Lipofectamine2000 (ThermoFisher Scientific). 48 h post transfection, the cells were stimulated with 100 μM peptide solution in HBSS containing 1 mM 3-isobutyl-1-methylxanthine (IBMX) and 1% DMSO and control buffer without peptide for 30 min at 37 °C. Subsequently, the medium was displaced with lysis buffer (5 mM HEPES, 0.3% Tween-20, 0.1% BSA, 1 mM IBMX, pH 7.6) and plates were frozen at − 80 °C until further use. The following steps were conducted as stated in the manufactures’ protocol of the AlphaScreen cAMP detection kit (PerkinElmer, USA) and an EnVision plate reader (PerkinElmer, USA) was used to detect the fluorescence. The data were analyzed with GraphPad Prism version 6 (GraphPad Software) are presented in x-fold over the corresponding empty vector control.

[3] = test system: empty vector-transfected COS-7 cells; test: cAMP accumulation assay (AlphaScreen), COS-7 cells with empty vector (Fig. S3C); assay type: cell-based, African green monkey; settings: 100 μM peptide, mean ± SEM of 5 independent assays, DMSO control 5.39 ± 2.15
Description: as §2
as §3, with “48 h post transfection, the cells were stimulated with 100 μM peptide solution in HBSS containing 1 mM 3-isobutyl-1-methylxanthine (IBMX) and 1% DMSO and control buffer without peptide for 30 min at 37 °C. Subsequently, the medium was displaced with lysis buffer (5 mM HEPES, 0.3% Tween-20, 0.1% BSA, 1 mM IBMX, pH 7.6) and plates were frozen at − 80 °C until further use.” left out

[4] = biological target: Nluc::NPR-11::eYFP in membranes of transfected HEK293 cells (C. elegans) (UniProt Q18179)
[5] = biological target: Nluc::NPR-11::eYFP in membranes of transfected HEK293 cells (C. elegans) (UniProt Q18179); test: FRET or BRET; NanoBRET binding in vitro: membranes of HEK293 cells transiently transfected with Nluc::NPR-11::eYFP (0.5 μg total protein), TAM-labeled peptide 10^-12 M to 10^-5 M, BRET buffer with 0.1% BSA and Pefabloc SC, 10 min, room temperature, coelenterazine H 4 μM; three-parameter logistic …
[6] = biological target: Nluc::NPR-11 (Nanoluciferase fused to the extracellular N terminus of the neuropeptide receptor NPR-11), expressed in C. elegans (C. elegans) (UniProt Q18179); test: FRET or BRET; NanoBRET binding in vivo: 30 Nluc-expressing C. elegans (L4 + 1 day) with incisions in 50 μl BRET buffer (HBSS + 25 mM HEPES, pH 7.4), TAM-labeled peptide 0.05-10 μM, 25 min incubation, Nano-Glo Live Cell Reagent (furimazine); Kd from one-site total and nonspecific binding fit with the scrambled peptide as nonspecific
[7] = biological target: Nluc::NPR-11 (Nanoluciferase fused to the extracellular N terminus of the neuropeptide receptor NPR-11), expressed in C. elegans (C. elegans) (UniProt Q18179); test: as above; remark: listed apart in the source
[8] = test system: Nanoluciferase (Nluc); test: Luminescence of luciferase substrate in cut Nluc-expressing worms (Fig. 1E); settings: vs coelenterazine H
Description: as §1
50 prepared worms were transferred into a white flat bottom 384-well plate in a total volume of 50 μl HBSS + 25 mM HEPES (pH 7.4; denoted BRET buffer). Immediately after adding coelenterazine H solution (Nanolight/ Prolume, USA) to a final concentration of 4 μM, luminescence was detected using an EnVision plate reader (PerkinElmer, USA) and a NanoBRET Blue 460/80 nm filter with 1000 ms integration time (five repeats every 5 min for long time observation).

[9] = biological target: T1, Nluc::LAT-1 …; test: cell-based or functional assay

Nluc::NPR-11::eYFP in membranes of transfected HEK293 cells (C. elegans), sequence (Q18179 whole entry, the tested form may be a part): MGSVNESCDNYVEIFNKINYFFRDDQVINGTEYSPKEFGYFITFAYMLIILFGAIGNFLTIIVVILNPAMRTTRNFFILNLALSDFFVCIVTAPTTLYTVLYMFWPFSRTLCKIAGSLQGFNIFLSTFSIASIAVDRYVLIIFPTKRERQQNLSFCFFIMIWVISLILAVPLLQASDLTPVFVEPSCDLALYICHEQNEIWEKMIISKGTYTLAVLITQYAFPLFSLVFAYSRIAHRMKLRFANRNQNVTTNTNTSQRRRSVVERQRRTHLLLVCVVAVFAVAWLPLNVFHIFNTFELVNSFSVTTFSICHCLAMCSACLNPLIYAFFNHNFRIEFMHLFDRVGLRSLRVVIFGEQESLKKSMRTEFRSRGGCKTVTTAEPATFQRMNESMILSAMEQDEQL
Nluc::NPR-11 (Nanoluciferase fused to the extracellular N terminus of the neuropeptide receptor NPR-11), expressed in C. elegans (C. elegans), sequence (Q18179 whole entry, the tested form may be a part): as above

cAMP reporter gene assay, forskolin-stimulated HEK293 cells transfected with NPR-11::eYFP (no Nluc): EC50 of NPR-11 activation [4] [nM] | Molecule | Kd [1] [nM] | cAMP conc. [2] [nM] | cAMP conc. [3] [nM] | also measured
– | CSCC[C@H](N)C(=O)N[C@@H](CC(=O)O)C(=O)N[C@H](C(=O)N[C@@H](CCCNC(=N)N)C(=O)N[C@@H](C)C(=O)N[C@H](C(=O)N[C@@H](Cc1c[nH]cn1)C(=O)N[C@@H](Cc1c[nH]cn1)C(=O)NCC(=O)N[C@H](C(=O)N[C@@H](CC(C)C)C(=O)N[C@@H](Cc1ccccc1)C(=O)N[C@@H](CNC(=O)c1ccc2c(c1)C(=O)OC21c2ccc(N(C)C)cc2Oc2cc(N(C)C)ccc21)C(=O)O)C(C)C)C(C)C)[C@@H](C)O [TAM-scrpLAT-1] (H-MDTRAVHHGVLF[Dap](5TAMRA)-OH) | > 10000 | 4.63 ± 0.81 | 4.45 ± 0.71 | BRET ratio relative to TAM-pLAT-1 ([1]; at 10 μM): one-third higher; cAMP accumulation / receptor activation ([2]; 100 μM): did not lead to a cAMP accumulation; also recorded: does not activate the receptor
2.3 | FLP-34-1 (unlabeled) (peptide) | – | – | – | –
0.5 | TAM-FLP-34-1 (tetramethylrhodamine-labeled FLP-34-1) (peptide) | – | – | – | Kd [5]: 388 nM; increase in the BRET ratio at 10 μM [6]: 0.08; Kd [7]: 1500 nM
– | CSCC[C@H](NC(=O)[C@H](CC(C)C)NC(=O)[C@@H](NC(=O)[C@H](C)NC(=O)[C@H](Cc1ccccc1)NC(=O)[C@H](Cc1c[nH]cn1)NC(=O)[C@@H](N)[C@@H](C)O)C(C)C)C(=O)N[C@@H](CC(=O)O)C(=O)N[C@H](C(=O)N[C@@H](CCCNC(=N)N)C(=O)NCC(=O)N[C@@H](Cc1c[nH]cn1)C(=O)N[C@@H](CNC(=O)c1ccc2c(c1)C(=O)OC21c2ccc(N(C)C)cc2Oc2cc(N(C)C)ccc21)C(=O)O)C(C)C [TAM-pLAT-1] (H-THFAVLMDVRGH[Dap](5TAMRA)-OH) | > 10000 | 3.69 ± 0.70 | 2.86 ± 0.60 | cAMP accumulation over control ([2]; 100 μM, 30 min, 37 °C, IBMX): 1.5 -fold
– | O=c1c(Cc2ccco2)nc2c(Cc3ccccc3)[nH]c(-c3ccccc3)cn1-2 [furimazine] | – | – | – | luminescence signal over time [8]: stable values over the entire time period; also recorded: lower but more stable luminescence signal
– | THFAVLMDVRGH-{Dap(TAM)} (reading uncertain) [TAM-pLAT-1 (TAM-labeled synthetic peptide derived from the tethered agonist sequence of LAT-1)] | – | – | – | cAMP accumulation (AlphaScreen) in COS-7 cells transfected with a LAT-1-encoding plasmid, 100 μM peptide [9]: 1.5 fold over control
